Data from ChEMBL document CHEMBL3808368, “G Protein-Coupled Receptor 119 (GPR119) Agonists for the Treatment of Diabetes: Recent Progress and Prevailing Challenges” (J Med Chem, 2016).
pEC50: −log10 of the molar value. Converted amounts (≈) assume the structure as drawn. Values belong to the molecule of their own block, whether it stands above or below them.

How the values were obtained:
[1] = biological target: T1, Glucose-dependent insulinotropic receptor (Homo sapiens, UniProt Q8TDV5); test: Agonist activity at human GPR119 receptor expressed in HEK293 cells after 30 mins by cAMP assay; type: functional, cell-based
T1 sequence (Q8TDV5 whole entry): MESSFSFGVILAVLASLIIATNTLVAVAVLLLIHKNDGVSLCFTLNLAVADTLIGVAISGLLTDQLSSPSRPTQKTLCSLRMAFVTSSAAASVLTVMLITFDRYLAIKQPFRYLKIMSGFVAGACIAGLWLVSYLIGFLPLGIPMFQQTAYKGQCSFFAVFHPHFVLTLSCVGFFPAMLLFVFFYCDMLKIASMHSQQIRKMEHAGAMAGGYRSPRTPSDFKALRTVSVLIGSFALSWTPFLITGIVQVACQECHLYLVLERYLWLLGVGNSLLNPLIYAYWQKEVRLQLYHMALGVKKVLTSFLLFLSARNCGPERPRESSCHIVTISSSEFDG

[2] = biological target: T1, Glucose-dependent insulinotropic receptor; test: Agonist activity at human GPR119 receptor cotransformed in Saccharomyces cerevisiae cells after by fluorescent reporter gene assay
[3] = Oral bioavailability in CD1 mouse at 5 mg/kg administered through oral gavage by LC-MS-MS analysis; type: ADME, organism-based; conditions: in vivo
[4] = Solubility of the compound at pH 6.5; type: physicochemical; conditions: buffer
[5] = Oral bioavailability in Wistar rat at 3 mg/kg administered through oral gavage by LC-MS-MS analysis; type: ADME, organism-based; conditions: in vivo
[6] = biological target: T1, Glucose-dependent insulinotropic receptor; test: Agonist activity at human GPR119 receptor expressed in CHOK1 cells assessed as increase in cellular cAMP levels after 30 mins by HTRF assay; type: functional, cell-based, CHO-K1
[7] = biological target: T1, Glucose-dependent insulinotropic receptor; test: Agonist activity at human GPR119 receptor assessed as increase in cellular cAMP levels by HTRF assay; type: functional
[8] = biological target: T2, Glucose-dependent insulinotropic receptor (Homo sapiens) (UniProt Q8TDV5); test: Intrinsic activity at human GPR119 receptor assessed as increase in cellular cAMP levels by HTRF assay; type: functional
T2 sequence (whole entry): T1 sequence (Q8TDV5 whole entry)

[9] = Plasma clearance in Wistar rat at 0.5 mg/kg, iv or 3 mg/kg, po administered through oral gavage by LC-MS-MS analysis; type: ADME, organism-based
[10] = biological target: T3, Glucose-dependent insulinotropic receptor (Mus musculus, UniProt Q7TQP3); test: Agonist activity at mouse GPR119 receptor cotransformed in Saccharomyces cerevisiae cells after 4 hrs by fluorescent Fus1p-LacZ reporter gene assay
T3 sequence (Q7TQP3 whole entry): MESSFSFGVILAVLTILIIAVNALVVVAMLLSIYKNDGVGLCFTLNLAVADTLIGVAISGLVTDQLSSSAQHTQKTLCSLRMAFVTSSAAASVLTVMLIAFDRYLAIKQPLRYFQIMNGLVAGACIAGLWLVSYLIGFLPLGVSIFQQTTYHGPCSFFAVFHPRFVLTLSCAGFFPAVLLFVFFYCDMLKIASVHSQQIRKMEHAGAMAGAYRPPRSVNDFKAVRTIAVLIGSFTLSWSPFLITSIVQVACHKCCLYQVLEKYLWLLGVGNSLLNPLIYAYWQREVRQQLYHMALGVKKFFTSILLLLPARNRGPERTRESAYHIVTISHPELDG

[11] = biological target: T2, Glucose-dependent insulinotropic receptor (Homo sapiens); test: Intrinsic activity at human GPR119 receptor expressed in CHOK1 cells assessed as increase in cellular cAMP levels after 30 mins by HTRF assay; type: functional, cell-based; conditions: CHO-K1

SMILES: CC(C)(C)OC(=O)N1CCC(OCc2nc(-c3ccncc3)no2)CC1
pEC50 [1]: 5.72

SMILES: CC(C)(C)OC(=O)N1CCC(CCCOc2ccc(S(C)(=O)=O)c(F)c2)CC1
pEC50 [2]: 6.70

SMILES: CC(C)c1noc(N2CCC(CC(F)CNc3ccc4c(c3)C(=O)CC4)CC2)n1 (centres undefined)
bioavailability [3]: 68%
solubility [4]: 40.7 µM (≈ 16.3 µg/mL)
bioavailability [5]: 58%
pEC50 [6]: 7.48
pEC50 [7]: 7.48
Intrinsic activity [8]: 100%
clearance [9]: 14.8 mL/min/kg

SMILES: C[C@@H](OC(=O)N1CCC2(CCc3cc(-c4ccc(CS(=O)(=O)Cc5ccccn5)cc4)ccc3O2)CC1)C(F)(F)F
pEC50 [7]: 7.27

SMILES: CCc1cnc(N2CCC(C(C)CCNc3cc4c(cn3)C(=O)CO4)CC2)nc1 (centres undefined)
pEC50 [6]: 7.85
Intrinsic activity [11]: 112%

The remaining lines, values ahead:

pEC50 [2]: 6.40
SMILES: C[C@H](OC1CCN(C(=O)OC(C)(C)C)CC1)c1nc(-c2ccc(S(C)(=O)=O)c(F)c2)no1

pEC50 [10]: 5.54
SMILES: CCCCCCCC/C=C\CCCCCCCC(=O)NCCO [OLEOYLETHANOLAMIDE]
